In paper PMC8159961, “Exploring protein hotspots by optimized fragment pharmacophores” (Nature Communications, 2021):
“Also recorded” adds a separate entry of the source. Read-outs that look alike come from different tables or passages of the source.

Tests used:
[1] = target: T1, recombinant SETD2 (Homo sapiens, UniProt Q9BYW2); assay: SETD2 Chemiluminescence assay (H3K36 tri-methylation); type: biochemical; conditions: for experimental hit status, SETD2: 1 = hit, 0 = no hit; for SETD2 signal, blank corrected, normalized to positive ctrl: internal control
T1 construct: purchased BPS Bioscience 52060
T1 sequence (Q9BYW2 1418-1714 limits assumed): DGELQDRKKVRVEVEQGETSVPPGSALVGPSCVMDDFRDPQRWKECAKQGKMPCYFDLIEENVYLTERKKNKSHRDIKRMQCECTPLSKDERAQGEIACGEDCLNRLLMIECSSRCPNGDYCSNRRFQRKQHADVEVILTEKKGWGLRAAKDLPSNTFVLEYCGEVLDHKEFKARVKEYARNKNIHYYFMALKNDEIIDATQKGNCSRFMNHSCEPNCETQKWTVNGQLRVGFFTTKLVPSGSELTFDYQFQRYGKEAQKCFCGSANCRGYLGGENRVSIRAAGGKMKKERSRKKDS

[2] = target: T2, SARS-CoV-2 NSP3 macrodomain (Severe acute respiratory syndrome coronavirus 2, UniProt P0DTD1); assay: NSP3 macrodomain HTRF assay, displacement of ADP-ribose-conjugated biotin peptide; type: binding
[3] = target: T3, human 5-HT6 receptor (Homo sapiens, UniProt P50406); assay: GPCR radioligand binding assay, [3H]-LSD displacement, HEK293 membranes; conditions: for experimental hit status, 5-HT6: 1 = hit, 0 = no hit, tested at 10 µM, hit = 50% or stronger inhibition
T3 construct: expressed in transfected cells
T3 sequence (P50406 whole entry): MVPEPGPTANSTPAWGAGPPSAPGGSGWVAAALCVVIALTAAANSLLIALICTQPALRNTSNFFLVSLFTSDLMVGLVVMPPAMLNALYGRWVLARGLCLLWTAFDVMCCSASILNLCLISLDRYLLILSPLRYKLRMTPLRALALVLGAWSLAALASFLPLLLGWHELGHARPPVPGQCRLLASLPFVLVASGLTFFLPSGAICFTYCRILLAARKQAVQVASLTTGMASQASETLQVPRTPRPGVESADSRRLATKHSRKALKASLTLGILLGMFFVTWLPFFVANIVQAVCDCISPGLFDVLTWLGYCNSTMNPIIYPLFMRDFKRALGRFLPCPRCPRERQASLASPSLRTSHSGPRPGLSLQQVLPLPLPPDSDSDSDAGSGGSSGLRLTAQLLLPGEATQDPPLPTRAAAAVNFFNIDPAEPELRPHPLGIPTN

[4] = target: T4, human 5-HT7b receptor (Homo sapiens, UniProt P34969); assay: GPCR radioligand binding assay, [3H]-5-CT displacement, HEK293 membranes; conditions: for experimental hit status, 5-HT7: 1 = hit, 0 = no hit, tested at 10 µM, hit = 50% or stronger inhibition
T4 construct: expressed in transfected cells
T4 sequence (P34969 1-432): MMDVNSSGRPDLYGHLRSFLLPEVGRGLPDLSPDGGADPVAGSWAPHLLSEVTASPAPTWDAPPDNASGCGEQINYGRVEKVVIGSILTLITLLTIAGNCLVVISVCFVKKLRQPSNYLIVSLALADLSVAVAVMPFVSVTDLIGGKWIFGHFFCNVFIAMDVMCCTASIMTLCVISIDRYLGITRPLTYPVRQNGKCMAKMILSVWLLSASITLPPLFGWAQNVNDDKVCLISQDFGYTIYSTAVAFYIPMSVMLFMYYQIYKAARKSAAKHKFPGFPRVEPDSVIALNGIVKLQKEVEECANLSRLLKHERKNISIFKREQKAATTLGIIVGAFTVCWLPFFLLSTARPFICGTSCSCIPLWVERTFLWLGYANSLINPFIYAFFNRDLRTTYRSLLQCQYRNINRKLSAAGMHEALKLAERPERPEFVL

[5] = target: T5, bovine factor Xa (Bos taurus, UniProt P00743); assay: Protease inhibitory assay, chromogenic substrate S-2222; type: biochemical; conditions: 1 = hit, 0 = no hit; screening at 200 µM
T5 construct: bovine factor Xa, Chromogenix, 2 nkat/mL; purchased Chromogenix
T5 sequence (P00743 234-492 limits assumed): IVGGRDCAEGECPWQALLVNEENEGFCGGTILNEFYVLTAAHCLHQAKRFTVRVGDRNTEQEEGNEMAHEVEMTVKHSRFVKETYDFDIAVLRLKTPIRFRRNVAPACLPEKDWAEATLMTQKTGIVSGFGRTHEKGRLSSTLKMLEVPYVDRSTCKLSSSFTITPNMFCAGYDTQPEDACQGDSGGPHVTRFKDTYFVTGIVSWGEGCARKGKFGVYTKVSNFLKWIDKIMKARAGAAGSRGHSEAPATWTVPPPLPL
T5 sequence (P00743 41-180 partner limits assumed): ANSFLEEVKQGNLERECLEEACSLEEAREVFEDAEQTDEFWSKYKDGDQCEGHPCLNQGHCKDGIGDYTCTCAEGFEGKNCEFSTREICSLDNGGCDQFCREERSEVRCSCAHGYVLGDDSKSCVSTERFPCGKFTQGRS

[6] = target: T6, human thrombin (Homo sapiens, UniProt P00734); assay: Protease inhibitory assay, chromogenic substrate S-2238; type: biochemical; conditions: 1 = hit, 0 = no hit; screening at 200 µM
T6 construct: human thrombin; purchased Sigma-Aldrich

[7] = tested on: SARS-CoV-2; assay: microbe, parasite or virus in culture; type: cell-based; conditions: for antiviral activity in the cellular assay (in words): infected Vero E6 cells
[8] = target: T2, SARS-CoV-2 NSP3 macrodomain; assay: X-ray fragment screening (XChem, crystal soaking); type: binding
[9] = target: T7, human 5-HT1A receptor (Homo sapiens, UniProt P08908); assay: GPCR radioligand binding assay, [3H]-8-OH-DPAT displacement, HEK293 membranes; conditions: for experimental hit status, 5-HT1: 1 = hit, 0 = no hit, tested at 10 µM, hit = 50% or stronger inhibition
T7 construct: expressed in transfected cells
T7 sequence (P08908 1-422): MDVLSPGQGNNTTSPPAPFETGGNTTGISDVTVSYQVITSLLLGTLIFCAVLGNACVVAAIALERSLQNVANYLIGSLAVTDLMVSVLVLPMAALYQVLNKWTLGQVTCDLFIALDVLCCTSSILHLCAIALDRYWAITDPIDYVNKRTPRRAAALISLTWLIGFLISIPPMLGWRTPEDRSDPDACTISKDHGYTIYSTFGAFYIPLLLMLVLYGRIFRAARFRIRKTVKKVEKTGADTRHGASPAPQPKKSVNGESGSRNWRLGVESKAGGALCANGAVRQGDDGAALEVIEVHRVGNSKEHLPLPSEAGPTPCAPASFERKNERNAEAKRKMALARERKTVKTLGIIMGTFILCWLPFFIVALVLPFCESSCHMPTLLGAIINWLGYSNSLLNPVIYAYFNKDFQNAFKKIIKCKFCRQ

[10] = tested on: SETD2; conditions: cited from earlier work
[11] = 10 µM, read-out: 5-HT6 % Inhibition by plate position
[12] = 5-HT6, average of exp_1 and exp_2, read-out: %inh 5-HT6 average
[13] = 5-HT6, average, values below 0 and above 100% were set as 0 and 100, read-out: %inh 5-HT6 corrected*
[14] = 5-HT6, replicate exp_1, read-out: %inh 5-HT6 exp_1
[15] = 5-HT6, replicate exp_2, read-out: %inh 5-HT6 exp_2
[16] = 10 µM, read-out: 5-HT7 % Inhibition by plate position
[17] = 5-HT7, average of exp_1 and exp_2, read-out: %inh 5-HT7 average
[18] = 5-HT7, average, values below 0 and above 100% were set as 0 and 100, read-out: %inh 5-HT7 corrected*
[19] = 5-HT7, replicate exp_1, read-out: %inh 5-HT7 exp_1
[20] = 5-HT7, replicate exp_2, read-out: %inh 5-HT7 exp_2
[21] = 10 µM, read-out: 5-HT1A % Inhibition by plate position
[22] = 5-HT1A, average of exp_1 and exp_2, read-out: %inh 5-HT1A average
[23] = 5-HT1A, average, values below 0 and above 100% were set as 0 and 100, read-out: %inh 5-HT1A corrected*
[24] = 5-HT1A, replicate exp_1, read-out: %inh 5-HT1A exp_1
[25] = 5-HT1A, replicate exp_2, read-out: %inh 5-HT1A exp_2

For `c1cnc2ncccc2c1` [SX003], the “experimental hit status, SETD2” value [1] was 0, the “activity in the NSP3 enzyme assay (in words)” value ([2]; HTRF assay, up to 5 mM concentration) was “no activity” and the inhibition at 10 µM [3, 11] was 48%. The “experimental hit status, 5-HT6” value [3] was 0, the inhibition at 10 µM [3, 12] was 48% and the inhibition at 10 µM [3, 13] was 48%. It also gave an inhibition at 10 µM [3, 14] of 55%, an inhibition at 10 µM [3, 15] of 41% and an inhibition at 10 µM [4, 16] of 34%. The “experimental hit status, 5-HT7” value [4] was 0, the inhibition at 10 µM [4, 17] was 34% and the inhibition at 10 µM [4, 18] was 34%. The inhibition at 10 µM [4, 19] was 32%, the inhibition at 10 µM [4, 20] was 36% and the “experimental hit status, Factor Xa” value [5] was 0. The “experimental hit status, Thrombin” value [6] was 0, the “antiviral activity in the cellular assay (in words)” value [7] was “inactive in cells” and the “X-ray screen result, binding site” value [8] was “identified in the active site”. The inhibition at 10 µM [9, 21] was 22%, the “experimental hit status, 5-HT1” value [9] was 0 and the inhibition at 10 µM [9, 22] was 22%. For the same compound, the inhibition at 10 µM [9, 23] was 22%, the inhibition at 10 µM [9, 24] was 24% and the inhibition at 10 µM [9, 25] was 21%.
With `Nc1nnc2ccccn12` [SX005] the “experimental hit status, SETD2” value [1] was 0, the “% SARS-CoV-2 macrodomain inhibition” value ([2]; 39.0625 µM, replicates) was 11.4% and the inhibition at 39.0625 µM ([2]; 39.0625 µM, replicates) was 10.2%. For the same compound, the “% SARS-CoV-2 macrodomain inhibition” value ([2]; 78.125 µM, replicates) was 23.5%, the inhibition at 78.125 µM ([2]; 78.125 µM, replicates) was 22.6% and the “% SARS-CoV-2 macrodomain inhibition” value ([2]; 156.25 µM, replicates) was 31.2%. The inhibition at 156.25 µM ([2]; 156.25 µM, replicates) was 27.9%, the “% SARS-CoV-2 macrodomain inhibition” value ([2]; 312.5 µM, replicates) was 41.8% and the inhibition at 312.5 µM ([2]; 312.5 µM, replicates) was 41%. The “% SARS-CoV-2 macrodomain inhibition” value ([2]; 625 µM, replicates) was 55.4%, the inhibition at 625 µM ([2]; 625 µM, replicates) was 54.1% and the “% SARS-CoV-2 macrodomain inhibition” value ([2]; 1250 µM, replicates) was 64.7%. For the same compound, the inhibition at 1250 µM ([2]; 1250 µM, replicates) was 65%, the “% SARS-CoV-2 macrodomain inhibition” value ([2]; 2500 µM, replicates) was 70.5% and the inhibition at 2500 µM ([2]; 2500 µM, replicates) was 72%. The “% SARS-CoV-2 macrodomain inhibition” value ([2]; 5000 µM, replicates) was 74.9%, the inhibition at 5000 µM ([2]; 5000 µM, replicates) was 74.7% and the IC50 ([2]; IC50, SARS-CoV-2 macrodomain inhibition) was 465 µM. The inhibition at 10 µM [3, 11] was 40%, the “experimental hit status, 5-HT6” value [3] was 0 and the inhibition at 10 µM [3, 12] was 40%. The inhibition at 10 µM [3, 13] was 40%, the inhibition at 10 µM [3, 14] was 45% and the inhibition at 10 µM [3, 15] was 35%. For the same compound, the inhibition at 10 µM [4, 16] was 0%, the “experimental hit status, 5-HT7” value [4] was 0 and the inhibition at 10 µM [4, 17] was -0.039%. For the same compound, the inhibition at 10 µM [4, 18] was 0%, the inhibition at 10 µM [4, 19] was -4.51% and the inhibition at 10 µM [4, 20] was 4.43%. The “experimental hit status, Factor Xa” value [5] was 0, the “experimental hit status, Thrombin” value [6] was 0 and the inhibition at 1000 µM ([7]; Severe acute respiratory syndrome coronavirus 2, Vero C1008, read-out: Inhibition (%) of viral copy numbers, 1000 uM, replicates) was 83.7%. For the same compound, the “antiviral activity in the cellular assay (in words)” value [7] was “high micromolar range; also recorded: Significant antiviral activities”, the “X-ray screen result, binding site” value [8] was “identified in the active site” and the inhibition at 10 µM [9, 21] was 0%. For the same compound, the “experimental hit status, 5-HT1” value [9] was 0, the inhibition at 10 µM [9, 22] was -14% and the inhibition at 10 µM [9, 23] was 0%. The inhibition at 10 µM [9, 24] was 4% and the inhibition at 10 µM [9, 25] was -32%.
For `Nc1ncnc2c1ncn2[C@@H]1O[C@H](C[C@@H](N)CC[C@H](N)C(=O)O)[C@@H](O)[C@H]1O` [Sinefungin, reference compound], the “activity as inhibitor of SETD2 (in words)” value [10] is listed as “moderately active”, the “inhibition of SETD2 activity (control, in words)” value ([1]; 200 µM Sinefungin) is listed as “complete inhibition” and the “SETD2 signal, blank corrected, normalized to positive ctrl” value ([1]; 200 µM) is listed as 0.074. The “SETD2 signal, blank corrected, normalized to positive ctrl” value ([1]; 800 µM) was 0.0136.
